The source made the active and inactive calls. No cut-off for these calls is given here.
What was measured:
Aspergillus flavus = assay: Antifungal activity against Aspergillus flavus at 1 ug/ml after 48 hr by well diffusion method; assay type: functional; details: read-out: IZ
Escherichia coli = assay: Antibacterial activity against Escherichia coli at 1 ug/ml after 24 hr by well diffusion method; assay type: functional; details: read-out: IZ
Proteus vulgaris = assay: Antibacterial activity against Proteus vulgaris at 1 ug/ml after 24 hr by well diffusion method; assay type: functional; details: for zone of inhibition at 1 µg/mL: read-out: IZ
[1] = tested on: Pectobacterium carotovorum; assay: Antibacterial activity against Pectobacterium carotovorum at 1 ug/ml after 24 hr by well diffusion method; assay type: functional; details: for zone of inhibition at 1 µg/mL: read-out: IZ
Bacillus subtilis = assay: Antibacterial activity against Bacillus subtilis at 1 ug/ml after 24 hr by well diffusion method; assay type: functional; details: read-out: IZ
Rhizoctonia solani = assay: Antifungal activity against Rhizoctonia solani at 1 ug/ml after 48 hr by well diffusion method; assay type: functional; details: for zone of inhibition at 1 µg/mL: read-out: IZ
Lasiodiplodia theobromae = assay: Antifungal activity against Lasiodiplodia theobromae at 1 ug/ml after 48 hr by well diffusion method; assay type: functional; details: for zone of inhibition at 1 µg/mL: read-out: IZ
Penicillium expansum = assay: Antifungal activity against Penicillium expansum at 1 ug/ml after 48 hr by well diffusion method; assay type: functional; details: read-out: IZ
Micrococcus luteus = assay: Antibacterial activity against Micrococcus luteus at 1 ug/ml after 24 hr by well diffusion method; assay type: functional; details: for zone of inhibition at 1 µg/mL: read-out: IZ
Klebsiella pneumoniae = assay: Antibacterial activity against Klebsiella pneumoniae at 1 ug/ml after 24 hr by well diffusion method; assay type: functional; details: read-out: IZ
Enterococcus faecalis = assay: Antibacterial activity against Enterococcus faecalis at 1 ug/ml after 24 hr by well diffusion method; assay type: functional; details: for zone of inhibition at 1 µg/mL: read-out: IZ
Streptococcus faecalis = assay: Antibacterial activity against Streptococcus faecalis at 1 ug/ml after 24 hr by well diffusion method; details: read-out: IZ
U-937 = assay: Cytotoxicity against Homo sapiens (human) U937 cells after 96 hr by MTT assay; assay type: functional, cell-based
HL-60 = assay: Cytotoxicity against Homo sapiens (human) HL60 cells after 96 hr by MTT assay; assay type: functional, cell-based
[2] = Homo sapiens, U-937, 96 h, read-out: IC50
[3] = Homo sapiens, HL-60, 96 h, read-out: IC50

CCOC(=O)/C(C#N)=N/Nc1nnc(CC)s1
zone of inhibition at 1 µg/mL (Aspergillus flavus): 12 mm | zone of inhibition at 1 µg/mL (Escherichia coli): 9 mm | inhibition zone (IZ) (Proteus vulgaris): inactive | inhibition zone (IZ) [1]: inactive | zone of inhibition at 1 µg/mL (Bacillus subtilis): 9 mm | inhibition zone (IZ) (Rhizoctonia solani): inactive | zone of inhibition at 1 µg/mL (Lasiodiplodia theobromae): 10 mm | zone of inhibition at 1 µg/mL (Penicillium expansum): 16 mm | zone of inhibition at 1 µg/mL (Micrococcus luteus): 6 mm | zone of inhibition at 1 µg/mL (Klebsiella pneumoniae): 7 mm | zone of inhibition at 1 µg/mL (Enterococcus faecalis): 6 mm | zone of inhibition at 1 µg/mL (Streptococcus faecalis): 5 mm

CCc1nnc(NN=C(C(C)=O)C(C)=O)s1
zone of inhibition at 1 µg/mL (Aspergillus flavus): 10 mm | zone of inhibition at 1 µg/mL (Escherichia coli): 8 mm | zone of inhibition at 1 µg/mL (Proteus vulgaris): 6 mm | zone of inhibition at 1 µg/mL [1]: 7 mm | zone of inhibition at 1 µg/mL (Bacillus subtilis): 8 mm | zone of inhibition at 1 µg/mL (Rhizoctonia solani): 6 mm | zone of inhibition at 1 µg/mL (Lasiodiplodia theobromae): 7 mm | zone of inhibition at 1 µg/mL (Penicillium expansum): 14 mm | zone of inhibition at 1 µg/mL (Micrococcus luteus): 8 mm | zone of inhibition at 1 µg/mL (Klebsiella pneumoniae): 5 mm | zone of inhibition at 1 µg/mL (Enterococcus faecalis): 8 mm | zone of inhibition at 1 µg/mL (Streptococcus faecalis): 8 mm

O=NN(CCCl)C(=O)NCCCl [CARMUSTINE]
IC50 (U-937; [2]): 12.3 µM | IC50 (HL-60; [3]): 30.5 µM

O=c1[nH]cc(F)c(=O)[nH]1 [FLUOROURACIL]
IC50 (U-937; [2]): 4.7 µM | IC50 (HL-60; [3]): 266 µM

Cc1nnc(NN=C(C#N)C#N)s1
zone of inhibition at 1 µg/mL (Aspergillus flavus): 12 mm | IC50 (U-937; u-937): Not Active | IC50 (HL-60; [3]): 28.1 µM | zone of inhibition at 1 µg/mL (Escherichia coli): 6 mm | zone of inhibition at 1 µg/mL (Proteus vulgaris): 10 mm | inhibition zone (IZ) [1]: inactive | zone of inhibition at 1 µg/mL (Bacillus subtilis): 10 mm | inhibition zone (IZ) (Rhizoctonia solani): inactive | zone of inhibition at 1 µg/mL (Lasiodiplodia theobromae): 8 mm | zone of inhibition at 1 µg/mL (Penicillium expansum): 15 mm | zone of inhibition at 1 µg/mL (Micrococcus luteus): 7 mm | zone of inhibition at 1 µg/mL (Klebsiella pneumoniae): 8 mm | zone of inhibition at 1 µg/mL (Enterococcus faecalis): 9 mm | zone of inhibition at 1 µg/mL (Streptococcus faecalis): 6 mm

CCc1nnc(NN=C(C#N)C#N)s1
zone of inhibition at 1 µg/mL (Aspergillus flavus): 12 mm | zone of inhibition at 1 µg/mL (Escherichia coli): 9 mm | inhibition zone (IZ) (Proteus vulgaris): inactive | zone of inhibition at 1 µg/mL [1]: 7 mm | zone of inhibition at 1 µg/mL (Bacillus subtilis): 11 mm | inhibition zone (IZ) (Rhizoctonia solani): inactive | zone of inhibition at 1 µg/mL (Lasiodiplodia theobromae): 15 mm | zone of inhibition at 1 µg/mL (Penicillium expansum): 16 mm | zone of inhibition at 1 µg/mL (Micrococcus luteus): 6 mm | zone of inhibition at 1 µg/mL (Klebsiella pneumoniae): 7 mm | zone of inhibition at 1 µg/mL (Enterococcus faecalis): 7 mm | zone of inhibition at 1 µg/mL (Streptococcus faecalis): 8 mm

CCOC(=O)/C(C#N)=N/Nc1nnc(C)s1
zone of inhibition at 1 µg/mL (Aspergillus flavus): 11 mm | IC50 (U-937; [2]): 19.3 µM | IC50 (HL-60; [3]): 22.1 µM | zone of inhibition at 1 µg/mL (Escherichia coli): 7 mm | zone of inhibition at 1 µg/mL (Proteus vulgaris): 8 mm | inhibition zone (IZ) [1]: inactive | zone of inhibition at 1 µg/mL (Bacillus subtilis): 8 mm | inhibition zone (IZ) (Rhizoctonia solani): inactive | zone of inhibition at 1 µg/mL (Lasiodiplodia theobromae): 7 mm | zone of inhibition at 1 µg/mL (Penicillium expansum): 17 mm | inhibition zone (IZ) (Micrococcus luteus): inactive | zone of inhibition at 1 µg/mL (Klebsiella pneumoniae): 7 mm | zone of inhibition at 1 µg/mL (Enterococcus faecalis): 7 mm | zone of inhibition at 1 µg/mL (Streptococcus faecalis): 6 mm

CC1(C)S[C@@H]2[C@H](NC(=O)[C@H](N)c3ccccc3)C(=O)N2[C@H]1C(=O)O [AMPICILLIN]
zone of inhibition at 1 µg/mL (Aspergillus flavus): 31 mm | zone of inhibition at 1 µg/mL (Escherichia coli): 28 mm | zone of inhibition at 1 µg/mL (Proteus vulgaris): 33 mm | zone of inhibition at 1 µg/mL [1]: 31 mm | zone of inhibition at 1 µg/mL (Bacillus subtilis): 30 mm | zone of inhibition at 1 µg/mL (Rhizoctonia solani): 29 mm | inhibition zone (IZ) (Lasiodiplodia theobromae): inactive | zone of inhibition at 1 µg/mL (Penicillium expansum): 35 mm | zone of inhibition at 1 µg/mL (Micrococcus luteus): 32 mm | zone of inhibition at 1 µg/mL (Klebsiella pneumoniae): 29 mm | inhibition zone (IZ) (Enterococcus faecalis): inactive | zone of inhibition at 1 µg/mL (Streptococcus faecalis): 30 mm

NC(=O)NO [HYDROXYUREA]
IC50 (HL-60; hl-60): Not Active

CC(=O)C(=NNc1nnc(C)s1)C(C)=O
zone of inhibition at 1 µg/mL (Aspergillus flavus): 12 mm | IC50 (U-937; [2]): 24.7 µM | IC50 (HL-60; [3]): 23 µM | zone of inhibition at 1 µg/mL (Escherichia coli): 8 mm | zone of inhibition at 1 µg/mL (Proteus vulgaris): 7 mm | zone of inhibition at 1 µg/mL [1]: 6 mm | zone of inhibition at 1 µg/mL (Bacillus subtilis): 7 mm | zone of inhibition at 1 µg/mL (Rhizoctonia solani): 4 mm | zone of inhibition at 1 µg/mL (Lasiodiplodia theobromae): 6 mm | zone of inhibition at 1 µg/mL (Penicillium expansum): 18 mm | inhibition zone (IZ) (Micrococcus luteus): inactive | zone of inhibition at 1 µg/mL (Klebsiella pneumoniae): 8 mm | zone of inhibition at 1 µg/mL (Enterococcus faecalis): 8 mm | zone of inhibition at 1 µg/mL (Streptococcus faecalis): 7 mm

Reference: ChEMBL document CHEMBL3044961, “Rapid synthesis, characterization, anticancer and antimicrobial activity studies of substituted thiadiazoles and their dinucleating ligand metal complexes” (Med Chem Res, 2012)
